Experimental data published in article PMC2629381 (Biochemistry, 2008).

Target: GluR4 (GluR4flip) (Rattus norvegicus, UniProt P19493, L505Y)
Assay: whole-cell voltage-clamp dose-response
Format: cell-based

Sequence of GluR4 (GluR4flip) (P19493 21-902 isoform P19493-2 L505Y): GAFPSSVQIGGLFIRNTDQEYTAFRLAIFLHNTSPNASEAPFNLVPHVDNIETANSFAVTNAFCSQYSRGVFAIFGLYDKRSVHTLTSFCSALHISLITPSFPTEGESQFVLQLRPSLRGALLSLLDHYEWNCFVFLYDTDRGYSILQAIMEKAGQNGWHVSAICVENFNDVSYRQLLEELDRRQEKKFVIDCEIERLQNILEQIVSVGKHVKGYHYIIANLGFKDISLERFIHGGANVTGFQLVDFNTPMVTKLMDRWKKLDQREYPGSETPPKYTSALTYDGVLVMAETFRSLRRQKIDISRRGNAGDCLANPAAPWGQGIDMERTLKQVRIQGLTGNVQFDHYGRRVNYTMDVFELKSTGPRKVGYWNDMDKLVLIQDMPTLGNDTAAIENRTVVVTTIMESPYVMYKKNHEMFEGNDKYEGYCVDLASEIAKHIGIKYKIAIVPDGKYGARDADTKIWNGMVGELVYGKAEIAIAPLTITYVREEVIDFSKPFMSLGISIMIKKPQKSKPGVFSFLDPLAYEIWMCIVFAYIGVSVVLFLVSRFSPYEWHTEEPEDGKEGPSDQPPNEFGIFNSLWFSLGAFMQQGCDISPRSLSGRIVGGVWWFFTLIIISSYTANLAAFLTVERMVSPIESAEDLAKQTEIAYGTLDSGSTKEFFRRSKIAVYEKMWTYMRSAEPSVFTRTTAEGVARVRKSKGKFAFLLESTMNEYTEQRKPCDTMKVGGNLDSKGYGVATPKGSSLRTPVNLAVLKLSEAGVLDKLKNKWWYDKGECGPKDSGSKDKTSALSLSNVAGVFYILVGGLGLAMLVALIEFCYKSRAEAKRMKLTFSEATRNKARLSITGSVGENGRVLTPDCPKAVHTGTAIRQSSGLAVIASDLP

Work on C=C(C)[C@H]1CN[C@H](C(=O)O)[C@H]1CC(=O)O [Kainate, 2-carboxy-3-carboxymethyl-4-isopropenyl-pyrrolidine] yielded an EC50 of 92 ± 14 µM.
